Test results from PubChem BioAssay AID1963963 (Molecular Pharmacology Branch, DTP, NCI, 2024).
Each block holds one compound with its values, some of them ahead of it.

System: 958667-338-R-J2-PDC tumor spheroids viability
Test: Anticancer human tumor 958667-338-R-J2-PDC patient-derived colon adenocarcinoma cell line growth inhibition [PI3K]
Settings: spheroids with HUVEC and MSC; for IC50: curve of first compound; for viability, T/C: stronger effect = lower value
Outline: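 Complex 3D spheroids (cancer cells + endothelial HUVEC + mesenchymal stem cells); drug pairs of targeted agent x inavolisib/alpelisib/duvelisib/copanlisib; half-log series from ~Cmax, max 10 microM if Cmax unknown; endpoint viability.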

[1] = second compound 0.00316 µM, first compound 0.0316 µM
[2] = second compound 0.00316 µM, first compound 0.1 µM
[3] = second compound 0.00316 µM, first compound 0.316 µM
[4] = second compound 0.00316 µM, first compound 1 µM
[5] = second compound 0.00316 µM, first compound 3.16 µM
[6] = second compound 0.00316 µM, first compound 10 µM
[7] = second compound 0.01 µM, first compound 0.0316 µM
[8] = second compound 0.01 µM, first compound 0.1 µM
[9] = second compound 0.01 µM, first compound 0.316 µM
[10] = second compound 0.01 µM, first compound 1 µM
[11] = second compound 0.01 µM, first compound 3.16 µM
[12] = second compound 0.01 µM, first compound 10 µM
[13] = second compound 0.0316 µM, first compound 0.0316 µM
[14] = second compound 0.0316 µM, first compound 0.1 µM
[15] = second compound 0.0316 µM, first compound 0.316 µM
[16] = second compound 0.0316 µM, first compound 1 µM
[17] = second compound 0.0316 µM, first compound 3.16 µM
[18] = second compound 0.0316 µM, first compound 10 µM
[19] = second compound 0.1 µM, first compound 0.0316 µM
[20] = second compound 0.1 µM, first compound 0.1 µM
[21] = second compound 0.1 µM, first compound 0.316 µM
[22] = second compound 0.1 µM, first compound 1 µM
[23] = second compound 0.1 µM, first compound 3.16 µM
[24] = second compound 0.1 µM, first compound 10 µM
[25] = second compound 0.316 µM, first compound 0.0316 µM
[26] = second compound 0.316 µM, first compound 0.1 µM
[27] = second compound 0.316 µM, first compound 0.316 µM
[28] = second compound 0.316 µM, first compound 1 µM
[29] = second compound 0.316 µM, first compound 3.16 µM
[30] = second compound 0.316 µM, first compound 10 µM
[31] = second compound 1 µM, first compound 0.0316 µM
[32] = second compound 1 µM, first compound 0.1 µM
[33] = second compound 1 µM, first compound 0.316 µM
[34] = second compound 1 µM, first compound 1 µM
[35] = second compound 1 µM, first compound 3.16 µM
[36] = second compound 1 µM, first compound 10 µM
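Also: spheroids exposed to compounds for seven days before readout.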

- IC50 (second compound 0.00316 µM): > 10 µM
- IC50 (second compound 0.01 µM): > 10 µM
- IC50 (second compound 0.0316 µM): 8.56 µM
- IC50 (second compound 0.1 µM): 6.62 µM
- IC50 (second compound 0.316 µM): 3.47 µM
- IC50 (second compound 1 µM): 1.4 µM
SMILES: C#Cc1c(F)ccc2cc(O)cc(-c3ncc4c(N5CC6CCC(C5)N6)nc(OCC56CCCN5CC(F)C6)nc4c3F)c12 (stereo not given) + CC(Nc1ccc2c(c1)OCCn1cc(N3C(=O)OCC3C(F)F)nc1-2)C(N)=O
- viability, T/C [1]: 95.2%
- viability, T/C [2]: 97.9%
- viability, T/C [3]: 110%
- viability, T/C [4]: 90.9%
- viability, T/C [5]: 90.6%
- viability, T/C [6]: 60.7%
- viability, T/C [7]: 101%
- viability, T/C [8]: 120%
- viability, T/C [9]: 121%
- viability, T/C [10]: 97.3%
- viability, T/C [11]: 74.2%
- viability, T/C [12]: 74.2%
- viability, T/C [13]: 99.9%
- viability, T/C [14]: 109%
- viability, T/C [15]: 100%
- viability, T/C [16]: 118%
- viability, T/C [17]: 83.1%
- viability, T/C [18]: 44.8%
- viability, T/C [19]: 69.2%
- viability, T/C [20]: 81%
- viability, T/C [21]: 77.4%
- viability, T/C [22]: 84.1%
- viability, T/C [23]: 71.4%
- viability, T/C [24]: 37.2%
- viability, T/C [25]: 69.1%
- viability, T/C [26]: 62%
- viability, T/C [27]: 66.7%
- viability, T/C [28]: 85.6%
- viability, T/C [29]: 52.4%
- viability, T/C [30]: 22.5%
- viability, T/C [31]: 61%
- viability, T/C [32]: 64.4%
- viability, T/C [33]: 44.6%
- viability, T/C [34]: 57.2%
- viability, T/C [35]: 45%
- viability, T/C [36]: 25.6%

- IC50 (second compound 0.00316 µM): > 10 µM
- IC50 (second compound 0.01 µM): > 10 µM
- IC50 (second compound 0.0316 µM): > 10 µM
- IC50 (second compound 0.1 µM): > 10 µM
- IC50 (second compound 0.316 µM): > 10 µM
- IC50 (second compound 1 µM): > 10 µM
SMILES: C=CC(=O)N1CCN(c2nc(=O)n(-c3c(C)ccnc3C(C)C)c3nc(-c4c(O)cccc4F)c(F)cc23)C(C)C1 (stereo not given) + CC(Nc1ccc2c(c1)OCCn1cc(N3C(=O)OCC3C(F)F)nc1-2)C(N)=O
- viability, T/C [1]: 85.9%
- viability, T/C [2]: 112%
- viability, T/C [3]: 82.4%
- viability, T/C [4]: 112%
- viability, T/C [5]: 101%
- viability, T/C [6]: 111%
- viability, T/C [7]: 88.2%
- viability, T/C [8]: 100%
- viability, T/C [9]: 101%
- viability, T/C [10]: 102%
- viability, T/C [11]: 115%
- viability, T/C [12]: 94.5%
- viability, T/C [13]: 87.3%
- viability, T/C [14]: 96.4%
- viability, T/C [15]: 88%
- viability, T/C [16]: 87.3%
- viability, T/C [17]: 89.7%
- viability, T/C [18]: 98.3%
- viability, T/C [19]: 80.5%
- viability, T/C [20]: 88.8%
- viability, T/C [21]: 101%
- viability, T/C [22]: 86.3%
- viability, T/C [23]: 96.7%
- viability, T/C [24]: 99.3%
- viability, T/C [25]: 58.2%
- viability, T/C [26]: 62.7%
- viability, T/C [27]: 65.2%
- viability, T/C [28]: 75.2%
- viability, T/C [29]: 72.4%
- viability, T/C [30]: 70.7%
- viability, T/C [31]: 57.2%
- viability, T/C [32]: 55.2%
- viability, T/C [33]: 75.1%
- viability, T/C [34]: 62.2%
- viability, T/C [35]: 61.3%
- viability, T/C [36]: 60.4%

- IC50 (second compound 0.00316 µM): > 10 µM
- IC50 (second compound 0.01 µM): > 10 µM
- IC50 (second compound 0.0316 µM): > 10 µM
- IC50 (second compound 0.1 µM): > 10 µM
- IC50 (second compound 0.316 µM): > 10 µM
- IC50 (second compound 1 µM): > 10 µM
SMILES: CC(Cn1ccc(-c2ccc(C#N)c(Cl)c2)n1)NC(=O)c1cc(C(C)O)[nH]n1 (stereo not given) + CC(Nc1ccc2c(c1)OCCn1cc(N3C(=O)OCC3C(F)F)nc1-2)C(N)=O
- viability, T/C [1]: 118%
- viability, T/C [2]: 111%
- viability, T/C [3]: 126%
- viability, T/C [4]: 117%
- viability, T/C [5]: 84.7%
- viability, T/C [6]: 99.2%
- viability, T/C [7]: 92.7%
- viability, T/C [8]: 106%
- viability, T/C [9]: 77.4%
- viability, T/C [10]: 91.4%
- viability, T/C [11]: 90.6%
- viability, T/C [12]: 90.5%
- viability, T/C [13]: 89.8%
- viability, T/C [14]: 99.9%
- viability, T/C [15]: 97.8%
- viability, T/C [16]: 93%
- viability, T/C [17]: 95%
- viability, T/C [18]: 75.2%
- viability, T/C [19]: 111%
- viability, T/C [20]: 88.9%
- viability, T/C [21]: 81.1%
- viability, T/C [22]: 78.6%
- viability, T/C [23]: 91.1%
- viability, T/C [24]: 82.4%
- viability, T/C [25]: 80%
- viability, T/C [26]: 49.7%
- viability, T/C [27]: 84.5%
- viability, T/C [28]: 63.6%
- viability, T/C [29]: 63.7%
- viability, T/C [30]: 78.8%
- viability, T/C [31]: 64.2%
- viability, T/C [32]: 61.2%
- viability, T/C [33]: 66.1%
- viability, T/C [34]: 62.8%
- viability, T/C [35]: 55.7%
- viability, T/C [36]: 49.8%

- IC50 (second compound 0.00316 µM): 4.62 µM
- IC50 (second compound 0.01 µM): 2.8 µM
- IC50 (second compound 0.0316 µM): 2.55 µM
- IC50 (second compound 0.1 µM): 4.67 µM
- IC50 (second compound 0.316 µM): 1.68 µM
- IC50 (second compound 1 µM): 1.64 µM
SMILES: CC1(C)CCC(Nc2ncc(C(F)(F)F)c(-c3c[nH]c4c(P(C)(C)=O)c(C#N)ccc34)n2)CN1 (stereo not given) + CC(Nc1ccc2c(c1)OCCn1cc(N3C(=O)OCC3C(F)F)nc1-2)C(N)=O
- viability, T/C [1]: 108%
- viability, T/C [2]: 85.9%
- viability, T/C [3]: 79.7%
- viability, T/C [4]: 75.2%
- viability, T/C [5]: 67.8%
- viability, T/C [6]: 29.5%
- viability, T/C [7]: 135%
- viability, T/C [8]: 109%
- viability, T/C [9]: 76.9%
- viability, T/C [10]: 63.2%
- viability, T/C [11]: 67.6%
- viability, T/C [12]: 20.1%
- viability, T/C [13]: 111%
- viability, T/C [14]: 108%
- viability, T/C [15]: 58.2%
- viability, T/C [16]: 60.7%
- viability, T/C [17]: 64.6%
- viability, T/C [18]: 25.7%
- viability, T/C [19]: 95.2%
- viability, T/C [20]: 78.6%
- viability, T/C [21]: 71.5%
- viability, T/C [22]: 75.8%
- viability, T/C [23]: 66.8%
- viability, T/C [24]: 24.3%
- viability, T/C [25]: 78.7%
- viability, T/C [26]: 78.7%
- viability, T/C [27]: 53.1%
- viability, T/C [28]: 54%
- viability, T/C [29]: 55.9%
- viability, T/C [30]: 26.2%
- viability, T/C [31]: 86.9%
- viability, T/C [32]: 66.8%
- viability, T/C [33]: 67.2%
- viability, T/C [34]: 52.8%
- viability, T/C [35]: 50.8%
- viability, T/C [36]: 14.3%

- IC50 (second compound 0.00316 µM): > 10 µM
- IC50 (second compound 0.01 µM): 9.95 µM
- IC50 (second compound 0.0316 µM): > 10 µM
- IC50 (second compound 0.1 µM): 6.57 µM
- IC50 (second compound 0.316 µM): 2.11 µM
- IC50 (second compound 1 µM): 2.14 µM
SMILES: Cn1nccc1Nc1nccc(-c2ccn(C(CO)c3ccc(Cl)c(F)c3)c(=O)c2)n1 (stereo not given) + CC(Nc1ccc2c(c1)OCCn1cc(N3C(=O)OCC3C(F)F)nc1-2)C(N)=O
- viability, T/C [1]: 91.7%
- viability, T/C [2]: 81.7%
- viability, T/C [3]: 112%
- viability, T/C [4]: 104%
- viability, T/C [5]: 78.7%
- viability, T/C [6]: 69.7%
- viability, T/C [7]: 108%
- viability, T/C [8]: 104%
- viability, T/C [9]: 105%
- viability, T/C [10]: 102%
- viability, T/C [11]: 75.8%
- viability, T/C [12]: 49.9%
- viability, T/C [13]: 101%
- viability, T/C [14]: 86.4%
- viability, T/C [15]: 92.4%
- viability, T/C [16]: 104%
- viability, T/C [17]: 75.7%
- viability, T/C [18]: 74.3%
- viability, T/C [19]: 102%
- viability, T/C [20]: 77.5%
- viability, T/C [21]: 102%
- viability, T/C [22]: 90.1%
- viability, T/C [23]: 87.4%
- viability, T/C [24]: 28.6%
- viability, T/C [25]: 81.5%
- viability, T/C [26]: 88.9%
- viability, T/C [27]: 86%
- viability, T/C [28]: 64.6%
- viability, T/C [29]: 41.9%
- viability, T/C [30]: 16.9%
- viability, T/C [31]: 67%
- viability, T/C [32]: 64%
- viability, T/C [33]: 70.6%
- viability, T/C [34]: 53.6%
- viability, T/C [35]: 47.6%
- viability, T/C [36]: 6.4%
